Source: patent US10017535B2, “Amphiphilic compounds with neuroprotective properties” (USTAV ORGANICKE CHEMIE A BIOCHEMIE AV CR, v.v.i., priority 2014, dated 2018)
Like-named read-outs stand apart in the source and are kept apart here.

Molecular target: T1, NR1-1a/NR2B NMDA receptor (Rattus norvegicus, UniProt P35439+Q00960)
T1 construct: expressed in transfected cells; host or cells: HEK293 cells (ATCC CRL1573)
Assay: Patch-clamp inhibition of glutamate-evoked currents at recombinant NMDA receptors in transfected HEK293 cells
Type: cell-based
Procedure: Transfected cells were identified by means of fluorescent green protein (GFP) fluorescence. Its genus was transfected together with the both receptor subunit genes.
Steroid-containing solutions were prepared from fresh solution (20 mmol·l^−1, of steroid dissolved in dimethyl sulfoxide, DMSO), which was added to the extracellular solution containing 1 mmol·l^−1 glutamic acid and 10 μmol·l^−1 of glycine. Identical concentrations of DMSO were added to all other extracellular solutions.
Current responses produced by extracellular application of glutamic acid solution (1 mmol·l^−1) were measured from the whole cell by patch-clamp technique, which is used for the study of transport of charged particles through model and also natural biological membranes. The currents were measured at membrane potential maintained at −60 mV and +60 mV.
Same amounts (0.3 μg) of cDNA coding NR1, NR2 and GFP (green fluorescent protein) (pQBI 25, Takara, Japan) were mixed with 0.9 μl of Matra-A Reagent (IBA, Göttingen, Germany) and added to confluent HEK293 cells cultivated in v 24-pit cultivating plate. After trypsination, the cells were re-suspended in Opti-MEM® I containing 1% fetal bovine serum. Subsequently, 20 mmol·l^−1 MgCl2, 1 mmol l^−1 D,L-2-amino-5-phosphonopentanoic acid, 3 mmol·l^−1 kynurenic acid was added to the mixture and cells were inoculated on the polylysine-coated glass plates having 25 mm in diameter. The following genes coding NMDA receptor subunits were used for transfection: NR1-1 a (GenBank accession No. U08261) and NR2B (GenBank accession No. M91562).
HEK293 Cultured cells were used for electrophysiological investigations with a latency of 16-40 h after transfection. Whole-cell currents were measured by patch-clamp amplifier (Axopatch 1D; Axon Instruments, Inc. Foster City, USA) after capacitance and serial resistance (<10 MΩ) compensation to 80-90%. Agonist-induced responses were filtered to 1 kHz (8-pole Bessel filter; Frequency Devices, Haverhill, USA), digitized with sampling frequency of 5 kHz and analyzed by pClamp version 9 software (Axon Instruments, USA). […] Extracellular solution (ECS) contained 160 mmol·l^−1 sodium chloride, 2.5 mmol·l^−1 potassium chloride, 10 mmol·l^−1 HEPES, 10 mmol·l^−1 glucose, 0.2 mmol·l^−1 EDTA a 0.7 mmol·l^−1 calcium chloride (pH adjusted to 7.3 by sodium hydroxide solution). Glycine was added to both testing and control solution. Moreover, bicuculline (10 μmol·l^−1) and tetrodotoxin (0.5 μmol·l^−1) was added to hippocampal cultures. Steroid-containing solutions were prepared from fresh solution (20 mmol·l^−1) of steroid dissolved in dimethyl sulfoxide (DMSO). Same concentrations of DMSO were used in all extracellular solutions. Control and experimental solutions were applied via microprocessor-controlled perfusion system with approx. rate of solution exchange in areas adjacent to cells reaching ˜10 ms.
Current responses produced by 100 μmol·l^−1 of NMDA (in the case of hipocampal neurones), or by 1 mmol·l^−1 of glutamate (on recombinant NMDA receptors) were measured at membrane potential maintained at −60 mV. […] Relative effect of steroid-induced inhibition was used for calculating IC50.

[1] = HEK293, read-out: Mean % change ± SD
[2] = calculated from relative steroid-induced inhibition, Hill's coefficient 1.2, read-out: IC50
[3] = steroid concentration 10 μmol·l^−1, 1 mmol·l^−1 glutamate, −60 mV
[4] = steroid concentration 3 μmol·l^−1, 1 mmol·l^−1 glutamate, −60 mV
[5] = HEK293, steroid concentration 50 μmol·l^−1, 1 mmol·l^−1 glutamate, −60 mV, read-out: Mean % change ± SD

T1 sequence (Q00960 27-1482, other chains not shown): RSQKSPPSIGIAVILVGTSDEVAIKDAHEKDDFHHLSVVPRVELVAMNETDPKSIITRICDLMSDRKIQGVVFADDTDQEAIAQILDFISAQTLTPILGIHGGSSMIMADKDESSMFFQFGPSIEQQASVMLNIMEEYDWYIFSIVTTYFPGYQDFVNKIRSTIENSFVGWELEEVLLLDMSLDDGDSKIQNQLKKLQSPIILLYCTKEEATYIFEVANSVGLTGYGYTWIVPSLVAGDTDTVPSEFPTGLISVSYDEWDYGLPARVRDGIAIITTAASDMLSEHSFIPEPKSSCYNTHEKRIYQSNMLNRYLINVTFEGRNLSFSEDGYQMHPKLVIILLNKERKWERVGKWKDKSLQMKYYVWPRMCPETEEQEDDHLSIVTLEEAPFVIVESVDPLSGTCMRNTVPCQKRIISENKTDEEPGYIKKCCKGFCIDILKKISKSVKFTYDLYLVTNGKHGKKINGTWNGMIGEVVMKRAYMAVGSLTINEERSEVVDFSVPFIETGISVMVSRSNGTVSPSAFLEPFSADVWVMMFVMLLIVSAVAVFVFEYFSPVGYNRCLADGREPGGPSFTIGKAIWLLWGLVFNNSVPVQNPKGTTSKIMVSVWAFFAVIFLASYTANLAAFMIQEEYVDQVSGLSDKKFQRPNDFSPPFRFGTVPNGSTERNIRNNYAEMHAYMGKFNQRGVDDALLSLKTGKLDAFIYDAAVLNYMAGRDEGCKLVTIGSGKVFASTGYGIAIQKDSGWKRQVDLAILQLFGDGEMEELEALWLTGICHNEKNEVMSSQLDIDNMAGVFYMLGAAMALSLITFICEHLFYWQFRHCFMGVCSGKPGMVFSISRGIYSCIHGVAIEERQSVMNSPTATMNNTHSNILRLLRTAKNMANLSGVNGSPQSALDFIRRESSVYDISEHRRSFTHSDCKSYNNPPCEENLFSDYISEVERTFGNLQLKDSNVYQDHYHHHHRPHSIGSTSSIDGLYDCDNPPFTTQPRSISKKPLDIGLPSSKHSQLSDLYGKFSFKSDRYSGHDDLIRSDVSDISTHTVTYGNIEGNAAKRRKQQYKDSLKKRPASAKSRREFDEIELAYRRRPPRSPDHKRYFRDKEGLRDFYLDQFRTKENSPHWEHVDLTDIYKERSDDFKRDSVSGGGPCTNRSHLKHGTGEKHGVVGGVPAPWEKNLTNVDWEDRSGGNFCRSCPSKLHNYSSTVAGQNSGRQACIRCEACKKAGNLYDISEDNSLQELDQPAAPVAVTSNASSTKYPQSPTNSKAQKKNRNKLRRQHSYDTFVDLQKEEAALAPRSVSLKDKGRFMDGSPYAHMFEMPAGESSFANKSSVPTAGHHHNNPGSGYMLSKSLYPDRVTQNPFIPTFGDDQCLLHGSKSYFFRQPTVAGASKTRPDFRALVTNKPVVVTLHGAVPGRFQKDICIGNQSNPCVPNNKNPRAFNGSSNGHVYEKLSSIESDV

Compound: C=C1C[C@H]2[C@@H]3CC[C@@H]4C[C@H](OS(=O)(=O)O)CC[C@]4(C)[C@H]3CC[C@]2(C)C1 [Compound 114, Pyridinium (3R,5R,8S,9S,10S,13R,14S)-10,13-dimethyl-16-methylenhexadekhydro-1H-cyclopenta[a]phenanthren-3-yl 3-sulfate]
- inhibition at 3 µM [1]: 59.1 ± 3.8%
- IC50 [2]: 2.1 µM

Compound: Pyridinium (3R,5R,8R,9R,10S,13S,14S)-13-methylhexadecahydro-1H-cyclopenta[a]phenanthren-3-yl 3-sulfate [Compound 126]
- IC50 [2]: 5.4 µM
- Mean % change ± SD [3]: 68.3 ± 7.4%

Compound: C[C@]12CC[C@@H](OS(=O)(=O)O)C[C@H]1CC[C@H]1CCCC[C@@H]12.c1ccncc1 [Compound 8, Pyridinium (2R,4aS,4bS,8aR,10aR)-4a-methyltetradecahydrophenanthren-2-yl 2-Sulfate]
- IC50 [2]: 28.3 µM
- Mean % change ± SD (steroid concentration 100 μmol·l^−1, 1 mmol·l^−1 glutamate, −60 mV): 78.3 ± 5.5%

Compound: C[C@@]12CCC[C@H]1[C@@H]1CC[C@@H]3C[C@H](OS(=O)(=O)O)CC[C@]3(C)[C@H]1CC2.c1ccncc1 [Compound 49, Pyridinium (3R,5R,8S,9S,10S,13S,14S)-10,13-dimethylhexadecahydro-1H-cyclopenta[a]phenanthren-3-yl 3-sulfate]
- IC50 [2]: 2.1 µM
- Mean % change ± SD (steroid concentration 2 μmol·l^−1, 1 mmol·l^−1 glutamate, −60 mV): 49.2 ± 6.6%

Compound: CC12CCCCC1C1CCC3CC(OS(=O)(=O)O)CCC3(C)C1CC2 [Compound 101, Pyridinium (2R,4aS,4bS,6aS,10bS,6aS,12aR)-4a,6a-dimethyloctadecahydrochrysen-2-yl 2-sulfate]
- inhibition at 5 µM (HEK293, steroid concentration 5 μmol·l^−1, 1 mmol·l^−1 glutamate, −60 mV, read-out: Mean % change ± SD): 69.1 ± 5.9%
- IC50 [2]: 2.3 µM

Compound: C[C@]12CC[C@@H](OS(=O)(=O)O)C[C@H]1CC[C@@H]1[C@@H]2CC[C@@]2(C)[C@H]1CCC2(F)F [Compound 95, Pyridinium (3R,5R,8R,9S,10S,13S,14S)-17,17-difluoro-10,13-dimethylhexadecahydro-1H-cyclopenta[a]phenanthren-3-yl 3-sulfate]
- IC50: 7 µM
- inhibition at 10 µM [1]: 61.2 ± 5.1%

Compound: Pyridinium (3R,5R,8R,9S,10S,13S,14S)-10,13-dimethyl-17-methylenehexadecahydro-1H-cyclopenta[a]phenanthren-3-yl 3-sulfate [Compound 116]
- IC50 [2]: 1.4 µM
- Mean % change ± SD [4]: 68.3 ± 4.3%

Compound: Pyridinium (3R,5R,8R,9S,10S,13R,14S,17R)-17-((R)-sec-butyl)-10,13-dimethylhexadecahydro-1H-cyclopenta[a]phenanthren-3-yl 3-sulfate [Compound 123]
- IC50 [2]: 11.7 µM
- Mean % change ± SD [3]: 46.2 ± 2.3%

Compound: Pyridinium (3R,5R,8S,9S,10S,13S,14R,17R)-10,17-dimethylhexadecahydro-1H-cyclopenta[a]phenanthren-3-yl 3-sulfate [Compound 118]
- IC50 [2]: 1.5 µM
- Mean % change ± SD [4]: 68.0 ± 7.8%

Compound: C/C=C1/CC[C@H]2[C@@H]3CC[C@@H]4C[C@H](OC(=O)CCCC(=O)O)CC[C@]4(C)[C@H]3CC[C@]12C [Compound 85, 5-(((3R,5R,8R,9S,10S,13S,14S,Z)-17-Ethylidene-10,13-dimethylhexadecahydro-1H-cyclopenta[a]phenanthren-3-yl)oxy)-5-oxopentanoic acid]
- inhibition at 50 µM [1]: 59.4 ± 7.8%
- IC50 [2]: 38.4 µM

Compound: C[C@@]12CCC[C@H]1[C@@H]1CC[C@@H]3C[C@H](OC(=O)C(=O)O)CC[C@]3(C)[C@H]1CC2 [Compound 50, 2-(((3R,5R,8S,9S,10S,13S,14S)-10,13-Dimethylhexadecahydro-1H-cyclopenta[a]phenanthren-3-yl)oxy)-2-oxoethanoic acid]
- inhibition at 10 µM [1]: 64 ± 7%
- IC50 [2]: 6.3 µM

Compound: COC(=O)C1(C)CCC2C(CCC3CC(OS(=O)(=O)O)CCC32C)C1C [Compound 22, Pyridinium (2R,4aS,7S,8S,10aR)-7-(methoxycarbonyl)-4a,7,8-trimethyltetra-decahydrophenanthren-2-yl 2-sulfate]
- inhibition at 100 µM (HEK293, steroid concentration 100 μmol·l^−1, 1 mmol·l^−1 glutamate, −60 mV, read-out: Mean % change ± SD): 40.9 ± 6.1%
- IC50 [2]: 74.6 µM

Compound: Pyridinium (3R,5R,8S,9S,10S,13R,14S,17S)-10,13,17-trimethylhexadecahydro-1H-cyclopenta[a]phenanthren-3-yl 3-sulfate [Compound 117]
- IC50 [2]: 1.1 µM
- Mean % change ± SD [4]: 73.1 ± 6.7%

Compound: C=C1CC[C@H]2[C@@H]3CC[C@@H]4C[C@H](OC(=O)C[N+](C)(C)C)CC[C@]4(C)[C@H]3CC[C@]12C [Compound 76, 2-(((3R,5R,8R,9S,10S,13S,14S)-10,13-Dimethyl-17-methylenehexadecahydro-1H-cyclopenta[a]phenanthren-3-yl)oxy)-N,N,N-trimethyl-2-oxoethan-1-ammonium chloride]
- inhibition at 50 µM [1]: 50 ± 10%
- IC50 [2]: 51.7 µM

Compound: C[C@]12CC[C@@H](OC(=O)CC(=O)O)C[C@H]1CC[C@@H]1[C@@H]2CC[C@]2(C)C=CC[C@@H]12 [Compound 65, 3-(((3R,5R,8R,9S,10S,13R,14S)-10,13-Dimethyl-2,3,4,5,6,7,8,9,10,11,12,13,14,15-tetradecahydro-1H-cyclopenta[a]phenanthren-3-yl)oxy)-3-oxopropanoic acid]
- inhibition at 10 µM [1]: 44 ± 11%
- IC50 [2]: 13.5 µM

Compound: C[C@@H]1CC[C@H]2[C@@H](CC[C@@H]3C[C@H](OS(=O)(=O)O)CC[C@@]32C)C1 [Compound 35, Pyridinium (2R,4aS,4bS,7R,8aS,10aR)-4a,7-dimethyltetradecahydrophenanthren-2-yl 2-sulfate]
- inhibition at 50 µM [5]: 85 ± 1.2%
- IC50 [2]: 12 µM

Compound: C[C@@]12CCC[C@H]1[C@@H]1CC[C@@H]3C[C@H](N4CC(C(=O)O)CC4=O)CC[C@]3(C)[C@H]1CC2 (stereo partly drawn) [Compound 131, 1-((3R,5R,8S,9S,10S,13S,14S)-10,13-Dimethylhexadecahydro-1H-cyclopenta[a]phenanthren-3-yl)-5-oxopyrrolidine-3-carboxylic acid]
- inhibition at 10 µM [1]: 34.7 ± 7.2%
- IC50 [2]: 17.7 µM

Compound: C[C@]12CC[C@@H](OS(=O)(=O)O)C[C@H]1CC[C@@H]1[C@@H]2CC[C@]2(C)[C@@H](I)CC[C@@H]12 [Compound 93, Pyridinium (3R,5R,8R,9S,10S,13S,14S,17S)-17-iodo-10,13-dimethylhexadecahydro-1H-cyclopenta[a]phenanthren-3-yl 3-sulfate]
- inhibition at 5 µM [1]: 90.5 ± 2.2%
- IC50 [2]: 0.8 µM

Compound: COC(=O)[C@@]1(C)CC[C@H]2[C@@H](CC[C@@H]3C[C@H](OS(=O)(=O)O)CC[C@@]32C)C1 [Compound 40, Methyl (2S,4aS,4bS,7R,8aR,10aS)-2,4b-dimethyl-7-(sulfooxy)tetradecahydrophenanthren-2-carboxylate]
- inhibition at 50 µM [5]: 14.4 ± 1.8%
- IC50 [2]: 224 µM

Compound: COC[C@@]1(C)CC[C@H]2[C@@H](CC[C@@H]3C[C@H](OS(=O)(=O)O)CC[C@@]32C)[C@@H]1C [Compound 18, Pyridinium (2R,4aS,4bS,7S,8S,8aS,10aR)-7-(methoxymethyl)-4a,7,8-trimethyltetra-decahydrophenanthren-2-yl 2-sulfate]
- inhibition at 50 µM [5]: 60.5 ± 4.6%
- IC50 [2]: 33 µM

Compound: Pyridinium (3R,5R,8R,9S,10S,13R,14S,17R)-17-isopropyl-10,13-dimethylhexadecahydro-1H-cyclopenta[a]phenanthren-3-yl 3-sulfate [Compound 122]
- IC50 [2]: 2 µM
- Mean % change ± SD [4]: 59.6 ± 18.8%

Compound: C[C@]12CC[C@@H](OS(=O)(=O)O)C[C@H]1CC[C@@H]1[C@@H]2CC[C@@]2(C)[C@H]1CC[C@@]21CO1 [Compound 97, Pyridinium (3R,5R,8R,9S,10S,13S,14S,17S)-10,13-dimethylhexadecahydrospiro-[cyclopenta[a]phenanthren-17,2′-oxiran]-3-yl 3-sulfate]
- inhibition at 100 µM [1]: 78 ± 8.9%
- IC50 [2]: 45 µM
